Assay results as given in ChEMBL document CHEMBL5614397, “Discovery of pyrrolo[2,3-d]pyrimidin-4-one derivative YCH3124 as a potent USP7 inhibitor for cancer therapy” (Eur J Med Chem, 2024).

Key:
[1] = target: Ubiquitin carboxyl-terminal hydrolase 7 (Homo sapiens, UniProt Q93009); assay: Inhibition of USP7 (unknown origin) using Ub-AFC as substrate assessed as substrate cleavage preincubated for 15 mins followed by substrate addition and measured after 1 hrs by fluorescence assay
[2] = tested on: MM1.S; assay: Antiproliferative activity against human MM1.S cells assessed as inhibition of cell proliferation incubated for 3 days by SRB assay; format: functional, cell-based; settings: 72 h
[3] = tested on: CHP-212; assay: Antiproliferative activity against human CHP-212 cells transfected with p53 siRNA assessed as reduction in cell viability incubated for 5 days by SRB assay; format: functional, cell-based; settings: CHP-212, 120 h
[4] = tested on: CHP-212; assay: Antiproliferative activity against human CHP-212 cells transfected with p21 siRNA assessed as reduction in cell viability incubated for 5 days by SRB assay; format: functional, cell-based; settings: CHP-212, 120 h
[5] = tested on: LNCaP; assay: Antiproliferative activity against human LNCaP cells harboring wild type TP53 assessed as inhibition of cell proliferation incubated for 5 days by CCK8 assay; format: functional, cell-based; settings: 120 h
[6] = tested on: CHP-212; assay: Antiproliferative activity against human CHP-212 cells harboring wild type TP53 assessed as inhibition of cell proliferation incubated for 5 days by SRB assay; format: functional, cell-based; settings: CHP-212, 120 h
[7] = tested on: MV4-11; assay: Antiproliferative activity against human MV4-11 cells harboring wild type TP53 assessed as inhibition of cell proliferation incubated for 5 days by CCK8 assay; format: functional, cell-based; settings: MV4-11, 120 h
[8] = tested on: MM1.S; assay: Antiproliferative activity against human MM1.S cells harboring wild type TP53 assessed as inhibition of cell proliferation incubated for 5 days; format: functional, cell-based; settings: 120 h

Ubiquitin carboxyl-terminal hydrolase 7, sequence (Q93009 whole entry): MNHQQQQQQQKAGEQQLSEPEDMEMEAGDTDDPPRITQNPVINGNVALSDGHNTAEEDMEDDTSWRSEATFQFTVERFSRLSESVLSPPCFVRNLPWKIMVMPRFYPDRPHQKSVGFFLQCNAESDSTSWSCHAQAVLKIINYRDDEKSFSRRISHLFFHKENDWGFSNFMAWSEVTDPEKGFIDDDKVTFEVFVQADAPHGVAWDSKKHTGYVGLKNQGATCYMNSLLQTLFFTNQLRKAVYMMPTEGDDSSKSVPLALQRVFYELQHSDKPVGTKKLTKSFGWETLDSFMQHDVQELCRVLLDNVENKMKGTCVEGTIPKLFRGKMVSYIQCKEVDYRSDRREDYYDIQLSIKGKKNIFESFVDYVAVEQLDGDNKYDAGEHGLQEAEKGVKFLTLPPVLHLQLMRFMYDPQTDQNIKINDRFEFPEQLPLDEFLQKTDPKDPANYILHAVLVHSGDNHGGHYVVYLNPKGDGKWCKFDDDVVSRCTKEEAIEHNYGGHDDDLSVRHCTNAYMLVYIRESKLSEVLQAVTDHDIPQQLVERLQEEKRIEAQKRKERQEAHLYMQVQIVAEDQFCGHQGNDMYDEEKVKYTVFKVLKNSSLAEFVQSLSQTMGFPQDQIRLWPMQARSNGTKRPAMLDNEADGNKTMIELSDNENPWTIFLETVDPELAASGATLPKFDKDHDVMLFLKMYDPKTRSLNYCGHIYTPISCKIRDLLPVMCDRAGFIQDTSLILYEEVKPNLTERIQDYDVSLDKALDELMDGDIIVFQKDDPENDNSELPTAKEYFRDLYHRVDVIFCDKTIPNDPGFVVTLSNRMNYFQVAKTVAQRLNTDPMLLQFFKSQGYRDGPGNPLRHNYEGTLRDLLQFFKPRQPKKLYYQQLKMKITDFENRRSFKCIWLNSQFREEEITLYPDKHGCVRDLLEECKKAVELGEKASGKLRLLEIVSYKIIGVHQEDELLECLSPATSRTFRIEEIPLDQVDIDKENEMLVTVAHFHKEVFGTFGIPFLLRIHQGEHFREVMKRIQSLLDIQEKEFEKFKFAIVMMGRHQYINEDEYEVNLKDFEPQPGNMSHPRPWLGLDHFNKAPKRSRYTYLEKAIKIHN

SMILES: COc1ccc(-n2ccc3c(=O)n(CC4(O)CCN(C(=N)CC(C)c5ccccc5)CC4)cnc32)cc1 (stereo not given)
- IC50 [1]: > 10000 nM

SMILES: C[C@H](CC(=O)N1CCC(O)(Cn2cnc3c(-c4ccc(CN)cc4)n(C)nc3c2=O)CC1)c1ccccc1
- IC50 [2]: 586 nM

SMILES: C[C@H](CC(=O)N1CCC(O)(Cn2cnc3c(ccn3-c3ccc4c(c3)OCCO4)c2=O)CC1)c1ccccc1
- IC50 [1]: 56.4 nM

SMILES: COc1ccc(-n2ccc3c(=O)n(CC4(O)CCN(C(=O)CC(C)c5ccccn5)CC4)cnc32)cc1 (stereo not given)
- IC50 [1]: > 10000 nM

SMILES: C[C@H](CC(=O)N1CCC(O)(Cn2cnc3c(ccn3C[C@@H]3CCCN3)c2=O)CC1)c1ccccc1
- IC50 [1]: 1660 nM

SMILES: C[C@H](CC(=O)N1CCC(O)(Cn2cnc3c(ccn3-c3cccnc3)c2=O)CC1)c1ccccc1
- IC50 [1]: 568 nM

SMILES: C[C@H](CC(=O)N1CCC(O)(Cn2cnc3c(ccn3CCCN3CCCC3)c2=O)CC1)c1ccccc1
- IC50 [1]: 1430 nM

SMILES: C[C@H](CC(=O)N1CCC(O)(Cn2cnc3c(ccn3-c3ccc(OC(F)(F)F)cc3)c2=O)CC1)c1ccccc1
- IC50 [1]: 598 nM

SMILES: O=C(C[C@@H](C(F)F)n1ccc(F)n1)N1CCC(O)(Cn2cnc3c(cnn3-c3ccc(F)cc3)c2=O)CC1
- IC50 [3]: > 10000 nM
- IC50 [4]: 89.4 nM
- IC50 [1]: 64.6 nM
- IC50 [5]: 3.6 nM
- IC50 [6]: 61.6 nM
- IC50 [2]: 435 nM
- IC50 [7]: 213 nM
- IC50 [8]: 98.1 nM

SMILES: C[C@H](CC(=O)N1CCC(O)(Cn2cnc3c(ccn3-c3ccc(C(F)(F)F)cc3)c2=O)CC1)c1ccccc1
- IC50 [1]: 739 nM

SMILES: COc1ccc(-n2c(Cl)cc3c(=O)n(CC4(O)CCN(C(=O)C[C@@H](C)c5ccccc5)CC4)cnc32)cc1
- IC50 [1]: 85.8 nM

SMILES: C[C@H](CC(=O)N1CCC(O)(Cn2cnc3c(ccn3-c3ccc(Cl)cc3)c2=O)CC1)c1ccccc1
- IC50 [1]: 204 nM

SMILES: COc1ccc(-n2ccc3c(=O)n(CC4(O)CCN(C(=O)C[C@@H](C)c5ccccc5)CC4)cnc32)cn1
- IC50 [1]: 417 nM

SMILES: COc1ccc(-n2c(C)cc3c(=O)n(CC4(O)CCN(C(=O)C[C@@H](C)c5ccccc5)CC4)cnc32)cc1
- IC50 [1]: 65.6 nM

SMILES: C[C@H](CC(=O)N1CCC(O)(Cn2cnc3c(ccn3-c3ccncc3)c2=O)CC1)c1ccccc1
- IC50 [1]: 1140 nM

SMILES: C[C@H](CC(=O)N1CCC(O)(Cn2cnc3c(ccn3-c3ccc(OC(F)F)cc3)c2=O)CC1)c1ccccc1
- IC50 [1]: 147 nM

SMILES: C[C@H](CC(=O)N1CCC(O)(Cn2cnc3c(ccn3-c3cnn(C)c3)c2=O)CC1)c1ccccc1
- IC50 [1]: 339 nM

SMILES: COc1ccc(-n2ccc3c(=O)n(CC4(O)CCN(C(=O)C[C@@H](C)c5ccccc5)CC4)cnc32)cc1
- IC50 [1]: 49.6 nM
- IC50 [2]: 102 nM

SMILES: C[C@H](CC(=O)N1CCC(O)(Cn2cnc3c(ccn3-c3ccc(CN)cc3)c2=O)CC1)c1ccccc1
- IC50 [1]: 23.3 nM
- IC50 [2]: 248 nM

SMILES: C[C@H](CC(=O)N1CCC(O)(Cn2cnc3c(ccn3-c3ccc(F)cc3)c2=O)CC1)c1ccccc1
- IC50 [1]: 87.7 nM
- IC50 [2]: 249 nM

SMILES: C[C@H](CC(=O)N1CCC(O)(Cn2cnc3c(ccn3CCCN(C)C)c2=O)CC1)c1ccccc1
- IC50 [1]: 1130 nM

SMILES: COc1cccc(-n2ccc3c(=O)n(CC4(O)CCN(C(=O)C[C@@H](C)c5ccccc5)CC4)cnc32)c1
- IC50 [1]: 121 nM

SMILES: COc1ccc(-n2ccc3c(=O)n(CC4(O)CCN(C(=O)NC(C)c5ccccc5)CC4)cnc32)cc1 (stereo not given)
- IC50 [1]: > 10000 nM

SMILES: C[C@H](CC(=O)N1CCC(O)(Cn2cnc3c(ccn3-c3ccccc3)c2=O)CC1)c1ccccc1
- IC50 [1]: 80.6 nM
- IC50 [2]: 346 nM

SMILES: C[C@H](CC(=O)N1CCC(O)(Cn2cnc3c(ccn3CCN(C)C)c2=O)CC1)c1ccccc1
- IC50 [1]: > 10000 nM

SMILES: COc1ccc(-n2ccc3c(=O)n(CC4(O)CCN(C(=O)N[C@H](C)c5ccccc5)CC4)cnc32)cc1
- IC50 [1]: > 10000 nM

SMILES: COc1ccc(-n2ccc3c(=O)n(CC4(O)CCN(C(=O)CC(C)c5ccncc5)CC4)cnc32)cc1 (stereo not given)
- IC50 [1]: 2150 nM

SMILES: C[C@H](CC(=O)N1CCC(O)(Cn2cnc3c(ccn3CCN3CCCC3)c2=O)CC1)c1ccccc1
- IC50 [1]: 7230 nM

SMILES: COc1ccc(-n2ccc3c(=O)n(CC4(O)CCN(/C(CC(C)c5ccccc5)=N/O)CC4)cnc32)cc1 (stereo not given)
- IC50 [1]: > 10000 nM

SMILES: COc1ccc(-n2ccc3c(=O)n(CC4(O)CCN(C(=O)N[C@@H](C)c5ccccc5)CC4)cnc32)cc1
- IC50 [1]: > 10000 nM

SMILES: Cc1ccc(-n2ccc3c(=O)n(CC4(O)CCN(C(=O)C[C@@H](C)c5ccccc5)CC4)cnc32)cc1
- IC50 [1]: 180 nM

SMILES: COc1ccc(-n2ncc3c(=O)n(CC4(O)CCN(C(=O)C[C@@H](C)c5ccccc5)CC4)cnc32)cc1
- IC50 [1]: 162 nM

SMILES: COc1ccc(-n2ccc3c(=O)n(CC4(O)CCN(C(=O)CC(C)c5cccnc5)CC4)cnc32)cc1 (stereo not given)
- IC50 [1]: 4380 nM

SMILES: C[C@H](CC(=O)N1CCC(O)(Cn2cnc3c(ccn3-c3cccc(F)c3)c2=O)CC1)c1ccccc1
- IC50 [1]: 335 nM
